The test system of series [1] is intracellular MRSA. Format: cell-based, Staphylococcus aureus. The settings on record: for %GFP+ rep 1 / z-scoreMRSA+ rep 1: replicate 1; for %GFP+ rep 2 / z-scoreMRSA+ rep 2: replicate 2; for %GFP+ rep 3 / z-scoreMRSA+ rep 3: replicate 3; for z-scoreMRSA+ mean: mean of 3 replicates. Put shortly:
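HeLa cells were infected with GFP-expressing MRSA (mean MOI 6.8) for 1 h, treated with 30 µg/ml gentamicin for 15 min, then incubated overnight at 37°C with kinase inhibitors and 5 µg/ml gentamicin. Flow cytometry gave % GFP-positive cells, with cell count as viability. Hits were z-score ≤ -2 (infection) and ≥ -3 (count) versus DMSO.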

Series [2] deals with HeLa cells. The series is described as follows: Compound screen by flow cytometry: HeLa cell count as surrogate readout of cell viability (z-scoreHeLa). The class given is cell-based, human. The following applies: for cell count rep 1 / z-scoreHeLa rep 1: replicate 1; for cell count rep 2 / z-scoreHeLa rep 2: replicate 2; for cell count rep 3 / z-scoreHeLa rep 3: replicate 3; for z-scoreHeLa mean: mean of 3 replicates. Put shortly:
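The viability surrogate was the count of fixed HeLa cells by flow cytometry, converted to z-scores against DMSO controls with values deviating two-fold excluded. Before counting, cells had been infected with MRSA for 1 h and cleared of extracellular bacteria with gentamicin. They were then exposed overnight to kinase inhibitors in triplicate.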

Setting [3] is: PKIS compound screen raw data, MRSA-infected HeLa cells.
Setting [4] is: PKIS compound screen, MRSA-infected HeLa cells.
Setting [5] is: PKIS compound screen, Yes/No call.
[6] abbreviates: PKIS compound screen, Yes/No call (effect without cell death).
Where [7] appears, read: PKIS compound screen, Yes/No call on z-scoreMRSA+.
The mark [8] stands for this setting: PKIS compounds raw data, MRSA-infected HeLa cells.
Where [9] appears, read: PKIS compound screen raw data, HeLa cell count.
Where [10] appears, read: PKIS compound screen, HeLa cell count.
The mark [11] stands for this setting: PKIS compound screen, Yes/No call on z-scoreHeLa.
Where [12] appears, read: PKIS compounds raw data, HeLa cell count.
Where [13] appears, read: Yes/No: effect without cell death.
[14] abbreviates: compound screen, MRSA-infected HeLa cells.
Setting [15] is: compound screen, HeLa cell count.

The values below come from PMC10999543, “Identification of kinase modulators as host-directed therapeutics against intracellular methicillin-resistant Staphylococcus aureus” (Frontiers in Cellular and Infection Microbiology, 2024).

Each structure is given as a SMILES string. Like-named read-outs stand apart in the source and are kept apart here.

As to `O=C(Nc1n[nH]c2nc(-c3ccccc3)c(Br)cc12)C1CC1` [SB-708998], in series [1] (setting [3]), the “%GFP+ rep 1” value amounted to 14.4%, the “%GFP+ rep 2” value stood at 13.9% and the “%GFP+ rep 3” value was 15.7%. Moreover, in series [1] (setting [4]), the “z-scoreMRSA+ mean” value was -1.40, the “z-scoreMRSA+ rep 1” value is given as -1.17, the “z-scoreMRSA+ rep 2” value is recorded as -1.50 and the “z-scoreMRSA+ rep 3” value is reported as -1.51. Moreover, the effect result in series [1] (setting [5]) is given as “No”. Moreover, in series [1] (setting [6]), the hit entry was “No”. Further, in series [1] (setting [7]), the effect result is listed as “No”. For the same molecule, in series [1] (PKIS compound screen), the “z-scoreMRSA+ mean” value turned out to be 0.31, the “z-scoreMRSA+ rep 1” value came to 0.75, the “z-scoreMRSA+ rep 2” value is listed as -0.18 and the “z-scoreMRSA+ rep 3” value worked out at 0.38. In series [1] (setting [8]), the “%GFP+ rep 1” value turned out to be 30.9%, the “%GFP+ rep 2” value is given as 25.1% and the “%GFP+ rep 3” value stood at 29.3%. Also, in series [2] (setting [9]), the “cell count rep 1” value is reported as 29154, the “cell count rep 2” value stood at 28936 and the “cell count rep 3” value came to 20350. Further, in series [2] (setting [10]), the z-scoreHeLa mean is on record as 0.24, the “z-scoreHeLa rep 1” value was -0.18, the “z-scoreHeLa rep 2” value is 0.63 and the “z-scoreHeLa rep 3” value is listed as 0.28. In addition, the cell death entry in series [2] (setting [5]) is “No”. For the same molecule, in series [2] (setting [11]), the cell death entry is given as “No”. Besides, in series [2] (PKIS compound screen), the z-scoreHeLa mean is listed as 0.29, the “z-scoreHeLa rep 1” value is -0.0543, the “z-scoreHeLa rep 2” value is reported as 0.46 and the “z-scoreHeLa rep 3” value was 0.46. Also, in series [2] (setting [12]), the “cell count rep 1” value was 5956, the “cell count rep 2” value was determined as 6708 and the “cell count rep 3” value is reported as 6327.

Regarding `CN(C)c1cc2c(Nc3ccc4nc(Cc5ccccc5)[nH]c4c3)ncnc2cn1` [GW301888X], the effect entry in series [1] (setting [5]) is “No”. Moreover, the hit entry in series [1] (setting [6]) is recorded as “No”. Also, in series [1] (PKIS compound screen), the “z-scoreMRSA+ mean” value is recorded as 0.0238, the “z-scoreMRSA+ rep 1” value was -0.0117, the “z-scoreMRSA+ rep 2” value was found to be 0.30 and the “z-scoreMRSA+ rep 3” value is given as -0.22. Also, in series [1] (setting [8]), the “%GFP+ rep 1” value came out at 27.0%, the “%GFP+ rep 2” value was found to be 27.6% and the “%GFP+ rep 3” value amounted to 26.1%. Moreover, the cell death entry in series [2] (setting [5]) is reported as “No”. Further, in series [2] (PKIS compound screen), the z-scoreHeLa mean came out at 0.66, the “z-scoreHeLa rep 1” value worked out at 0.47, the “z-scoreHeLa rep 2” value amounted to 0.90 and the “z-scoreHeLa rep 3” value was found to be 0.61. Also, in series [2] (setting [12]), the “cell count rep 1” value is reported as 6836, the “cell count rep 2” value is 7361 and the “cell count rep 3” value came out at 6557.

As to `CS(=O)(=O)CCNCc1nc(-c2ccc3ncnc(Nc4ccc(OCc5cccc(F)c5)c(Cl)c4)c3c2)cs1` [GW583340C], in series [1] (setting [8]), the “%GFP+ rep 1” value amounted to 17.5%, the “%GFP+ rep 2” value is on record as 15.0% and the “%GFP+ rep 3” value is recorded as 17.3%. Besides, in series [1] (Yes/No call from z-scoreMRSA+), the effect result is recorded as “No”. In addition, the hit result in series [1] (setting [13]) is “No”. Moreover, in series [1] (setting [14]), the “z-scoreMRSA+ mean” value is -1.71, the “z-scoreMRSA+ rep 1” value is -1.81, the “z-scoreMRSA+ rep 2” value was -1.85 and the “z-scoreMRSA+ rep 3” value is reported as -1.47. In series [2] (setting [12]), the “cell count rep 1” value came to 5969, the “cell count rep 2” value is recorded as 5507 and the “cell count rep 3” value was 7162. Moreover, in series [2] (Yes/No call from z-scoreHeLa), the cell death entry is given as “No”. Moreover, in series [2] (setting [15]), the z-scoreHeLa mean turned out to be 1.10, the “z-scoreHeLa rep 1” value stood at 1.17, the “z-scoreHeLa rep 2” value was found to be 0.93 and the “z-scoreHeLa rep 3” value is 1.22.

With `NS(=O)(=O)c1ccc(N/N=C2\C(=O)Nc3ccc(Cl)cc32)cc1` [GW280670X], the effect entry in series [1] (setting [5]) is “No”. For the same molecule, the hit entry in series [1] (setting [6]) is listed as “No”. In series [1] (PKIS compound screen), the “z-scoreMRSA+ mean” value turned out to be 6.79, the “z-scoreMRSA+ rep 1” value is given as 7.09, the “z-scoreMRSA+ rep 2” value was found to be 11.94 and the “z-scoreMRSA+ rep 3” value was found to be 1.34. In series [1] (setting [8]), the “%GFP+ rep 1” value is reported as 35.3%, the “%GFP+ rep 2” value is 49.2% and the “%GFP+ rep 3” value was determined as 20.4%. In series [2] (setting [5]), the cell death result was “No”. Further, in series [2] (PKIS compound screen), the z-scoreHeLa mean amounted to 0.17, the “z-scoreHeLa rep 1” value was -0.14, the “z-scoreHeLa rep 2” value is 0.27 and the “z-scoreHeLa rep 3” value is 0.37. In series [2] (setting [12]), the “cell count rep 1” value came to 4621, the “cell count rep 2” value stood at 4629 and the “cell count rep 3” value turned out to be 7741.

For the molecule `COc1ccc(Nc2nccc(-c3ccc(NC(=O)c4cc5cc(F)ccc5[nH]4)cc3)n2)cc1` [GSK1229496A], in series [1] (setting [3]), the “%GFP+ rep 1” value was found to be 23.7%, the “%GFP+ rep 2” value is listed as 24.4% and the “%GFP+ rep 3” value is on record as 20.6%. In series [1] (Yes/No call from z-scoreMRSA+), the effect result is given as “No”. In series [1] (setting [13]), the hit entry is given as “No”. Further, in series [1] (setting [14]), the “z-scoreMRSA+ mean” value was -0.14, the “z-scoreMRSA+ rep 1” value was -0.37, the “z-scoreMRSA+ rep 2” value stood at 0.43 and the “z-scoreMRSA+ rep 3” value is -0.48. For the same molecule, in series [2] (setting [9]), the “cell count rep 1” value turned out to be 4195, the “cell count rep 2” value was determined as 3679 and the “cell count rep 3” value worked out at 5039. The cell death entry in series [2] (Yes/No call from z-scoreHeLa) is given as “No”. Further, in series [2] (setting [15]), the z-scoreHeLa mean is -0.24, the “z-scoreHeLa rep 1” value is listed as -0.11, the “z-scoreHeLa rep 2” value is recorded as -0.48 and the “z-scoreHeLa rep 3” value is -0.13.

Turning to `COc1ccc(CNC(=O)NC2CCN(c3ccnc(Nc4ccc(OC)cc4)n3)C2)cc1` (centres unmarked) [GSK1379727A], the effect entry in series [1] (setting [5]) is given as “No”. In addition, the hit result in series [1] (setting [6]) is recorded as “No”. Besides, in series [1] (PKIS compound screen), the “z-scoreMRSA+ mean” value amounted to 1.14, the “z-scoreMRSA+ rep 1” value came out at 0.96, the “z-scoreMRSA+ rep 2” value amounted to 1.05 and the “z-scoreMRSA+ rep 3” value was determined as 1.40. In addition, in series [1] (setting [8]), the “%GFP+ rep 1” value was 32.0%, the “%GFP+ rep 2” value worked out at 31.5% and the “%GFP+ rep 3” value is recorded as 34.8%. Further, the cell death entry in series [2] (setting [5]) is listed as “No”. Also, in series [2] (PKIS compound screen), the z-scoreHeLa mean came out at 0.68, the “z-scoreHeLa rep 1” value is recorded as 0.99, the “z-scoreHeLa rep 2” value is reported as 0.43 and the “z-scoreHeLa rep 3” value came to 0.62. Further, in series [2] (setting [12]), the “cell count rep 1” value was 7697, the “cell count rep 2” value stood at 6658 and the “cell count rep 3” value was determined as 6574.

For `c1ccc(-c2n[nH]cc2Nc2ccnc3ccccc23)nc1` [GW694077X], in series [1] (setting [3]), the “%GFP+ rep 1” value stood at 15.2%, the “%GFP+ rep 2” value is 17.2% and the “%GFP+ rep 3” value was 15.3%. In addition, in series [1] (setting [4]), the “z-scoreMRSA+ mean” value is given as -1.06, the “z-scoreMRSA+ rep 1” value is reported as -0.96, the “z-scoreMRSA+ rep 2” value is on record as -0.60 and the “z-scoreMRSA+ rep 3” value is recorded as -1.62. In addition, the hit result in series [1] (setting [6]) is “No”. Also, the effect result in series [1] (setting [7]) is “No”. For the same molecule, in series [2] (setting [9]), the “cell count rep 1” value was 27159, the “cell count rep 2” value came out at 28509 and the “cell count rep 3” value is 18866. Further, in series [2] (setting [10]), the z-scoreHeLa mean amounted to 0.01, the “z-scoreHeLa rep 1” value was -0.51, the “z-scoreHeLa rep 2” value came out at 0.55 and the “z-scoreHeLa rep 3” value was -0.0113. Besides, the cell death entry in series [2] (setting [11]) is “No”.

With `Cc1cccc(-c2nc(Nc3ccc4c(cnn4C)c3)c3ccccc3n2)n1` [GW876731X], in series [1] (setting [3]), the “%GFP+ rep 1” value is given as 19.5%, the “%GFP+ rep 2” value was 19.1% and the “%GFP+ rep 3” value is reported as 19.8%. Besides, the effect result in series [1] (Yes/No call from z-scoreMRSA+) is “No”. Besides, the hit entry in series [1] (setting [13]) is “No”. Further, in series [1] (setting [14]), the “z-scoreMRSA+ mean” value is on record as -0.09, the “z-scoreMRSA+ rep 1” value was 0.19, the “z-scoreMRSA+ rep 2” value is listed as -0.0842 and the “z-scoreMRSA+ rep 3” value is -0.39. In series [2] (setting [9]), the “cell count rep 1” value is 29057, the “cell count rep 2” value is 27157 and the “cell count rep 3” value is 25742. In series [2] (Yes/No call from z-scoreHeLa), the cell death result is “No”. In series [2] (setting [15]), the z-scoreHeLa mean is recorded as 0.49, the “z-scoreHeLa rep 1” value is reported as -0.19, the “z-scoreHeLa rep 2” value came out at 0.32 and the “z-scoreHeLa rep 3” value came out at 1.33.
